For one experiment, the system named is LNCaP. Nature of the experiment: Cytotoxicity against human LNCAP cells assessed as cell viability after 72 hrs by MTT assay. It is filed as functional, cell-based.
In the next experiment the test system is HepG2. Nature of the experiment: Cytotoxicity against human HepG2 cells assessed as cell viability after 72 hrs by MTT assay. It is filed as functional, cell-based. Particulars: HepG2, 72 h. Background: Formazan colour is commonly taken as a measure of viable cells.
The next experiment concerns MCF7. The experiment can be described thus: Cytotoxicity against human MCF7 cells assessed as cell viability after 72 hrs by MTT assay. It counts as functional, cell-based. Particulars: MCF7, 72 h.
The target of experiment [1] is Kinesin-like protein KIF11 (Homo sapiens, UniProt P52732). Nature of the experiment: Inhibition of EG5 (unknown origin).
Sequence of Kinesin-like protein KIF11 (P52732 whole entry): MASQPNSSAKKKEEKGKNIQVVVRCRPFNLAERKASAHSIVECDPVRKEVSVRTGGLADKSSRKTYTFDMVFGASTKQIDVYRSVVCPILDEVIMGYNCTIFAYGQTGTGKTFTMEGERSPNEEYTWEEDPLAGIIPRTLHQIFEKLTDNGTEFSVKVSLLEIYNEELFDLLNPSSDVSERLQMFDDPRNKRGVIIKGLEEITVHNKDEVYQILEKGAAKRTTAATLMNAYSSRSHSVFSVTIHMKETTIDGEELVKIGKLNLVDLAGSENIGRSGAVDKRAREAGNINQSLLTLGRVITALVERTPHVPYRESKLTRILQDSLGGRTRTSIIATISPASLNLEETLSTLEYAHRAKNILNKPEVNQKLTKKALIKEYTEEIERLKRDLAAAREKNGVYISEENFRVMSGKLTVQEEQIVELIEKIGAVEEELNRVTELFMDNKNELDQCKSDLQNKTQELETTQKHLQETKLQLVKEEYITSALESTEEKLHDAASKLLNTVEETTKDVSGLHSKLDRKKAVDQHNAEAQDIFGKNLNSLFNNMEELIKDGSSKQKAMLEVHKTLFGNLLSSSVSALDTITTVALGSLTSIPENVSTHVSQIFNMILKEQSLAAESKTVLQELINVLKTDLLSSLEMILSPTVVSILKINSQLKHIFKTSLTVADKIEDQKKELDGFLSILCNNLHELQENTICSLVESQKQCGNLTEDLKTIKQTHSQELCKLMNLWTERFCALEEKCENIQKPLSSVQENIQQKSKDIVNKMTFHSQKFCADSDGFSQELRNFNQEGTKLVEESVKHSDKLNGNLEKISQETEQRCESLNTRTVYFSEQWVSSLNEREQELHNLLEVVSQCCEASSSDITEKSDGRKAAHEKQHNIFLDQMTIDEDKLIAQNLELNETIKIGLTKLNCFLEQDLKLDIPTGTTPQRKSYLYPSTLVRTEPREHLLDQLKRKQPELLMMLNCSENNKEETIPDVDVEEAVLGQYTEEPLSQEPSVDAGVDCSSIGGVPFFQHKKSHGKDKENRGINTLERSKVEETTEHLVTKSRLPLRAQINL

Converted amounts (≈) assume the structure as drawn.

In general, IC50 refers to the concentration that inhibits the measured activity by half.

On to `COc1cccc2c1C(=O)c1c(O)c3c(c(O)c1C2=O)C[C@@](O)(C(=O)CO)C[C@@H]3O[C@H]1C[C@H](N)[C@H](O)[C@H](C)O1` [DOXORUBICIN], for which the IC50 worked out at 5.28 µg/mL (≈ 9.71 µM) in the experiment with LNCaP and 4.23 µg/mL (≈ 7.78 µM) with HepG2.
With `c1ccc2c3c([nH]c2c1)[C@@H](c1ccc([C@H]2NCCc4c2[nH]c2ccccc42)cc1)NCC3`, the values for the IC50 in the experiment on MCF7, with LNCaP and in the experiment on HepG2 were 8.7 µg/mL (≈ 20.8 µM), 15.2 µg/mL (≈ 36.4 µM) and 5.22 µg/mL (≈ 12.5 µM), respectively.
Taken in the same sequence, the figures for `c1ccc2c3c([nH]c2c1)[C@H](c1ccc([C@@H]2NCCc4c2[nH]c2ccccc42)cc1)NCC3` were 5.19 µg/mL (≈ 12.4 µM), 13.3 µg/mL (≈ 31.8 µM) and 6.22 µg/mL (≈ 14.9 µM).
In the case of `CCCCN1C(=O)[C@H]2Cc3c([nH]c4ccccc34)[C@@H](c3cccc(O)c3)N2C1=O`, in experiment [1], 800 nM corresponded to half-maximal inhibition (IC50).

(Values after ChEMBL document CHEMBL4004838, “Design and synthesis of novel phenyl -1, 4-beta-carboline-hybrid molecules as potential anticancer agents” (Eur J Med Chem, 2017).)
